Numbered stars: 1 amine (or outer) side, 2 acyl side, 3 side chain; on linkers, the order of the positions; unused ones are H or OH. Bridge positions count the residues as written; N and C are the ends. Square brackets hold non-standard residues; d marks the D form. Peptide text beside a SMILES is read from it. Trp(βS-Me,7-OMe) = COc1cccc2c([C@H](C)[C@H](N)C(=O)O)c[nH]c12; X24 = O=C(O)c1ccc([C@@H](O)[C@H](N[*:1])C(=O)[*:2])cc1; X28 = NC(=O)c1ccc([C@H](O)[C@H](N[*:1])C(=O)[*:2])cc1; Trp(7-CN) = N#Cc1cccc2c(C[C@H](N)C(=O)O)c[nH]c12; Trp(7-Cl) = N[C@@H](Cc1c[nH]c2c(Cl)cccc12)C(=O)O; Phe(4-CONH2) = NC(=O)c1ccc(C[C@H](N)C(=O)O)cc1; Phe(4-COOH) = N[C@@H](Cc1ccc(C(=O)O)cc1)C(=O)O; Trp(7-aza) = N[C@@H](Cc1c[nH]c2ncccc12)C(=O)O; dPro(4S-NH2) = N[C@@H]1CN[C@@H](C(=O)O)C1; Pip(5R-OH) = O=C(O)[C@@H]1CC[C@@H](O)CN1; X1 = O=C([C@@H]1CC[C@H](N[*:1])C1)[*:2]; X19 = O=C([C@H](Cc1ccncn1)N[*:1])[*:2]; Gly(N(CH2)3COOH) = O=C(O)CCCNCC(=O)O; Pip(4-aza) = O=C(O)[C@@H]1CNCCN1; 4Pal = N[C@@H](Cc1ccncc1)C(=O)O; NMeE = CN[C@@H](CCC(=O)O)C(=O)O; dHyp = O=C(O)[C@H]1C[C@H](O)CN1; X7 = CC[C@@H](C(=O)[*:1])[*:2]; Pip = O=C(O)[C@@H]1CCCCN1; αMeS = C[C@](N)(CO)C(=O)O; Nle = CCCC[C@H](N)C(=O)O; Sar = CNCC(=O)O
Key:
[1] = target: T1, human TNFR1 extracellular domain (ECD) protein (Homo sapiens, UniProt P19438); assay: SPR binding affinity to captured human TNFR1 ECD
T1 construct: HRV 3C protease cleavage site (C); 6His (C, cleaved yes); made in house; host or cells: Sf21 insect cells (baculovirus), secreted
T1 sequence (P19438 30-211): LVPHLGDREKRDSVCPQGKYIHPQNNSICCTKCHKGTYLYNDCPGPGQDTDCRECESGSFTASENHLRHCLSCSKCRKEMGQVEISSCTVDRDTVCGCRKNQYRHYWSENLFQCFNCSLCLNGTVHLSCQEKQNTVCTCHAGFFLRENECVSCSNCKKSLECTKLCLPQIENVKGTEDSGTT
Summary of the method: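 Biotinylated human TNFR1 or TNFR2 ECD (C-terminal Avi-tag, Sf21-expressed) captured on a regenerable streptavidin chip; peptide analytes flowed in 10 mM HEPES pH 7.4, 150 mM NaCl, 3 mM EDTA, 0.05% P20, 2% DMSO. kon and koff measured; affinity calculated from the rate constants.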

[2] = target: T2, TNFα-induced NF-κB signal transduction pathway (TNFR1 signaling) in THP-1 cells (Homo sapiens, UniProt P19438); assay: THP-1 Lucia NF-κB reporter cell assay, inhibition of TNFα-induced NF-κB signaling; format: cell-based; settings: THP-1 NF-κB Lucia reporter cells, 10 ng/mL TNFα, 16-18 h, secreted luciferase; read-out: THP-1 IC50
T2 sequence (P19438 30-455): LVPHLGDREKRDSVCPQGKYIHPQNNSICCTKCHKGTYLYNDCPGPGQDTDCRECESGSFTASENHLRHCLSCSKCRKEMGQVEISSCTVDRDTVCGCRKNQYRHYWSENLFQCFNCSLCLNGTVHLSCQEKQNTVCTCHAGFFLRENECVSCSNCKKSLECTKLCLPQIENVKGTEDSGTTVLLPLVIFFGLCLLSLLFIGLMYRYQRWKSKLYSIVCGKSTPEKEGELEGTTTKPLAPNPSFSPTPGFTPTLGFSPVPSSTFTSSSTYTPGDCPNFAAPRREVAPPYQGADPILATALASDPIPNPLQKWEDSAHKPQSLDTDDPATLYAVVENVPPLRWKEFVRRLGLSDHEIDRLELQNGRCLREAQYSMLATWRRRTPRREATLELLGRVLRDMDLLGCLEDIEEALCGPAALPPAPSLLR
Summary of the method: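 Read-out: secreted Lucia luciferase luminescence (QUANTI-Luc) from supernatant after 16-18 h, 37 °C, 10 ng/mL rhTNFα. Peptide pretreatment 1 h at 37 °C; 20,000 cells/well, selection antibiotics omitted. IC50 via 4-parameter logistic model against min/max controls.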

| SMILES | Kd [1] [nM] | IC50 [2] [nM] |
| --- | --- | --- |
| CCCC[C@@H]1NC(=O)[C@@H]2CC[C@@H](C2)NC(=O)[C@H]([C@@H](C)c2c[nH]c3c(OC)cccc23)NC(=O)CN(C)C(=O)[C@H]([C@H](O)c2ccc(C(=O)O)cc2)NC(=O)[C@H]([C@@H](O)c2ccc(C(N)=O)cc2)NC(=O)[C@](C)(CO)NC(=O)[C@H](Cc2c[nH]c3c(C#N)cccc23)NC(=O)[C@H](Cc2ccncc2)NC(=O)[C@H](CC(N)=O)NC(=O)[C@H]2C[C@H](O)CN2C(=O)[C@H](Cc2c[nH]c3ccccc23)NC(=O)[C@@H]2CC[C@@H](O)CN2C(=O)[C@H](Cc2ccncc2)NC1=O [SEQ ID NO. 155] (cyclo([4Pal][Trp(7-CN)][αMeS][X28][X24][Sar][Trp(βS-Me,7-OMe)][X1][Nle][4Pal][Pip(5R-OH)]W[dHyp]N)) | 0.02 | 0.9 |
| CCCC[C@@H]1NC(=O)CSC[C@@H](C(N)=O)NC(=O)[C@H]([C@@H](C)c2c[nH]c3c(OC)cccc23)NC(=O)CN(C)C(=O)[C@H](Cc2ccc(O)cc2)NC(=O)[C@H](Cc2ccc(C(=O)O)cc2)NC(=O)[C@](C)(CO)NC(=O)[C@H](Cc2c[nH]c3c(Cl)cccc23)NC(=O)[C@H](Cc2ccncc2)NC(=O)[C@H](CC(N)=O)NC(=O)CN(CCCC(=O)O)C(=O)[C@H](Cc2c[nH]c3ncccc23)NC(=O)[C@@H]2CCCCN2C(=O)[C@H](Cc2ccncc2)NC1=O [SEQ ID NO. 157] ({CH2CO}-[Nle][4Pal][Pip][Trp(7-aza)][Gly(N(CH2)3COOH)]N[4Pal][Trp(7-Cl)][αMeS][Phe(4-COOH)]Y[Sar][Trp(βS-Me,7-OMe)]C-NH2; thioether N-14) | 0.5 | 4 |
| CCCC[C@@H]1NC(=O)[C@@H]2CC[C@@H](C2)NC(=O)[C@H]([C@@H](C)c2c[nH]c3c(OC)cccc23)NC(=O)CN(C)C(=O)[C@H](Cc2ccc(C(=O)O)cc2)NC(=O)[C@H](Cc2ccc(C(N)=O)cc2)NC(=O)[C@](C)(CO)NC(=O)[C@H](Cc2c[nH]c3c(Cl)cccc23)NC(=O)[C@H](Cc2ccncn2)NC(=O)[C@H](CC(N)=O)NC(=O)[C@H]2C[C@H](O)CN2C(=O)[C@H](Cc2c[nH]c3ncccc23)NC(=O)[C@@H]2CC[C@@H](O)CN2C(=O)[C@H](Cc2ccncc2)NC1=O [SEQ ID NO. 159] (cyclo([4Pal][Pip(5R-OH)][Trp(7-aza)][dHyp]N[X19][Trp(7-Cl)][αMeS][Phe(4-CONH2)][Phe(4-COOH)][Sar][Trp(βS-Me,7-OMe)][X1][Nle])) | 0.05 | 0.8 |
| CCCC[C@@H]1NC(=O)[C@@H]2CC[C@@H](C2)NC(=O)[C@H]([C@@H](C)c2c[nH]c3c(OC)cccc23)NC(=O)CN(C)C(=O)[C@H](Cc2ccc(O)cc2)NC(=O)[C@H](Cc2ccc(C(=O)O)cc2)NC(=O)[C@](C)(CO)NC(=O)[C@H](Cc2c[nH]c3c(Cl)cccc23)NC(=O)[C@H](Cc2ccncc2)NC(=O)[C@H](CC(N)=O)NC(=O)[C@H]2C[C@H](N)CN2C(=O)[C@H](Cc2c[nH]c3ccccc23)NC(=O)[C@@H]2CNCCN2C(=O)[C@H](Cc2ccncc2)NC1=O [SEQ ID NO. 161] (cyclo([4Pal][Trp(7-Cl)][αMeS][Phe(4-COOH)]Y[Sar][Trp(βS-Me,7-OMe)][X1][Nle][4Pal][Pip(4-aza)]W[dPro(4S-NH2)]N)) | 0.02 | 1.3 |
| CCCC[C@@H]1NC(=O)[C@@H]2CC[C@@H](C2)NC(=O)[C@H]([C@@H](C)c2c[nH]c3c(OC)cccc23)NC(=O)CN(C)C(=O)[C@H](Cc2ccc(O)cc2)NC(=O)[C@H](Cc2ccc(C(N)=O)cc2)NC(=O)[C@](C)(CO)NC(=O)[C@H](Cc2c[nH]c3c(Cl)cccc23)NC(=O)[C@H](Cc2ccncc2)NC(=O)[C@H](CC(N)=O)NC(=O)[C@H](CCC(=O)O)N(C)C(=O)[C@H](Cc2c[nH]c3ccccc23)NC(=O)[C@@H]2CC[C@@H](O)CN2C(=O)[C@H](Cc2ccncc2)NC1=O [SEQ ID NO. 163] (cyclo([4Pal][Trp(7-Cl)][αMeS][Phe(4-CONH2)]Y[Sar][Trp(βS-Me,7-OMe)][X1][Nle][4Pal][Pip(5R-OH)]W[NMeE]N)) | 0.05 | 0.7 |
| CCCC[C@@H]1NC(=O)[C@H](CC)SC[C@@H](C(N)=O)NC(=O)[C@H]([C@@H](C)c2c[nH]c3c(OC)cccc23)NC(=O)CN(C)C(=O)[C@H](Cc2ccc(O)cc2)NC(=O)[C@H](Cc2ccc(C(N)=O)cc2)NC(=O)[C@](C)(CO)NC(=O)[C@H](Cc2c[nH]c3c(Cl)cccc23)NC(=O)[C@H](Cc2ccc(C(=O)O)cc2)NC(=O)[C@H](CC(N)=O)NC(=O)[C@H](CCC(=O)O)N(C)C(=O)[C@H](Cc2c[nH]c3ncccc23)NC(=O)[C@@H]2CC[C@@H](O)CN2C(=O)[C@H](Cc2ccncc2)NC1=O [SEQ ID NO. 168] ([Nle][4Pal][Pip(5R-OH)][Trp(7-aza)][NMeE]N[Phe(4-COOH)][Trp(7-Cl)][αMeS][Phe(4-CONH2)]Y[Sar][Trp(βS-Me,7-OMe)]C-NH2; linker N-14 via X7) | 0.37 | 1.2 |

From patent publication US20240287138A1, “CYCLIC PEPTIDES FOR INHIBITING TNF RECEPTOR 1 ACTIVITY” (Merck Sharp & Dohme LLC, priority 2023, published 2024)
